Measurements reported in US4204065A, “Soft quaternary surface active agents and method of using same” (Interx Research Corporation, priority 1978, dated 1980).
Entries after “also recorded” stand apart in the source; their conditions may differ. Read-outs that look alike come from different tables or passages of the source.

Tests used:
mouse [1] = details: cited from earlier work
mouse [2] = details: cited from earlier work; remark: listed apart in the source
rat = details: cited from earlier work
S. pyogenes = experiment: Minimal inhibitory concentration (MIC), S. pyogenes; assay type: cell-based; details: Streptococcus pyogenes; 0.1 M NaH2PO4, pH 7.0
B. subtilis = experiment: Minimal inhibitory concentration (MIC), B. subtilis; assay type: cell-based; details: Bacillus subtilis; 0.1 M NaH2PO4, pH 7.0
S. aureus = experiment: microbe, parasite or virus in culture; assay type: cell-based; details: Staphylococcus aureus, pH 7, read-out: Minimal inhibitory concentration (MIC), S. aureus
S. typhimirum = experiment: Minimal inhibitory concentration (MIC), S. typhimirum; assay type: cell-based; details: 0.1 M NaH2PO4, pH 7.0
P. aeruginosa = experiment: Minimal inhibitory concentration (MIC), P. aeruginosa; assay type: cell-based; details: Pseudomonas aeruginosa; 0.1 M NaH2PO4, pH 7.0
[3] = Saturated solubility (footnote of MIC table); assay type: physicochemical; details: 0.1 M NaH2PO4, pH 7.0; footnote b; read-out: Approximately the saturated solubility
From the text: ^b Approximately the saturated solubility.

in vivo [4] = details: mouse, iv
in vivo [5] = details: mouse, po
[6] = system: MCR-ICR White Swiss Male Mice; details: mouse; for Mortality 24 hrs. / Mortality 7 days: in vivo
White Male Mice MCR-ICR = details: oral; for Mortality 24 hrs. / Mortality 7 days: deaths of 10 animals per dose

For `CCCCCCCCCCCCCCCC[n+]1ccccc1` [Compound 1, cetylpyridinium chloride], the “LD50 IP” value (mouse [1]) is listed as 10 mg/kg, the LD50 oral (mouse [2]) is listed as 108 mg/kg and the “LD50 IV” value (rat) is listed as 30 mg/kg.
For `CCCCCCCC(=O)OC[n+]1ccccc1` [Compound 2, n-Octanoyloxymethylpyridinium chloride], the MIC (S. pyogenes) was 529 µg/mL, the MIC (B. subtilis) was 529 µg/mL and the MIC (S. aureus) was 529 µg/mL. The MIC (S. typhimirum) was 1060 µg/mL and the MIC (P. aeruginosa) was 1060 µg/mL.
Compound `CCCCCCCCCCCC(=O)OC[n+]1ccccc1` [Compound 3, n-Dodecanoyloxymethylpyridinium chloride] has an MIC (S. pyogenes) of 71.5 µg/mL, an MIC (B. subtilis) of 143 µg/mL and an MIC (S. aureus) of 8.9 µg/mL. The MIC (S. typhimirum) was 35.8 µg/mL and the MIC (P. aeruginosa) was < 2.2 µg/mL.
`CCCCCCCCCCCCCC(=O)OC[n+]1ccccc1` [Compound 4, n-Tetradecanoyloxymethylpyridinium chloride] gave an MIC (S. pyogenes) of 4.2 µg/mL, an MIC (B. subtilis) of 8.3 µg/mL and an MIC (S. aureus) of 8.1 µg/mL. The MIC (S. typhimirum) was 133 µg/mL and the MIC (P. aeruginosa) was > 1060 µg/mL.
With `CCCCCCCCCCCCCCCC(=O)OC[n+]1ccccc1` [Compound 5, n-Hexadecanoyloxymethylpyridinium chloride] the MIC (S. pyogenes) was 268 µg/mL, the MIC (B. subtilis) was 1070 µg/mL and the MIC (S. aureus) was 16.7 µg/mL. For the same compound, the MIC (S. typhimirum) was 1070 µg/mL and the MIC (P. aeruginosa) was 1070 µg/mL.
Compound `CCCCCCCCCCCC(=O)OC[n+]1ccn(C)c1` [Compound 6] has an MIC (S. pyogenes) of 2 µg/mL, an MIC (B. subtilis) of 16.3 µg/mL and an MIC (S. aureus) of 4.1 µg/mL. For the same compound, the MIC (S. typhimirum) was 65.3 µg/mL and the MIC (P. aeruginosa) was 261 µg/mL.
In the case of `CCCCCCCCCCCCCC(=O)OC[n+]1ccn(C)c1` [Compound 7], the MIC (S. pyogenes) is reported as > 2.2 µg/mL, the MIC (B. subtilis) is reported as 4.4 µg/mL and the MIC (S. aureus) is reported as < 2.2 µg/mL. The MIC (S. typhimirum) was 69.7 µg/mL and the MIC (P. aeruginosa) was > 1120 µg/mL.
For `CCCCCCCCCCCCCCCC(=O)OC[n+]1ccn(C)c1` [Compound 8], the MIC (S. pyogenes) was > 42.4 µg/mL, the MIC (B. subtilis) was > 42.4 µg/mL and the MIC (S. aureus) was 1.3 µg/mL. The solubility [3] was ~42.4 µg/mL, the MIC (S. typhimirum) was > 42.4 µg/mL and the MIC (P. aeruginosa) was > 42.4 µg/mL.
For `CCCCCCCCCCCC(=O)OC[n+]1ccn(C)c1` [IRx-1229], the LD50 at 24 h (in vivo [4]) was 100 to 133 mg/kg, the LD50 at 24 h (in vivo [5]) was 4300 mg/kg and the LD50 at 168 h (in vivo [5]) was 4110 mg/kg. For the same compound, the “Symptoms: time of death” value ([6]; IV) was “Death either occurred immediately after injection or several day later, never between 5 minutes and 24 hours after injection”, the “Symptoms: cause and signs of immediate death” value ([6]; IV, death immediately following injection) was “circulatory collapse because of too large an injection or precipitation of the compound in the bloodstream; also recorded: death was preceded by convulsions” and the “Mortality 24 hrs.” value ([6]; 133 mg/kg) was 1/3. The “Mortality 7 days” value ([6]; 133 mg/kg) was 1/3, the “Mortality 24 hrs.” value ([6]; iv, 35.09 mg/kg) was 0/5 and the “Mortality 7 days” value ([6]; iv, 35.09 mg/kg) was 0/5. For the same compound, the “Mortality 24 hrs.” value ([6]; iv, 42.5 mg/kg) was 0/5, the “Mortality 7 days” value ([6]; iv, 42.5 mg/kg) was 0/5 and the “Mortality 24 hrs.” value ([6]; iv, 81.25 mg/kg) was 1/2. For the same compound, the “Mortality 7 days” value ([6]; iv, 81.25 mg/kg) was 1/2, the “Mortality 24 hrs.” value ([6]; iv, 87.73 mg/kg) was 2/4 and the “Mortality 7 days” value ([6]; iv, 87.73 mg/kg) was 2/4. The “Mortality 24 hrs.” value ([6]; iv, 102.47 mg/kg) was 0/8, the “Mortality 7 days” value ([6]; iv, 102.47 mg/kg) was 1/8 and the “Mortality 24 hrs.” value ([6]; iv, 199.5 mg/kg) was 1/1. For the same compound, the “Mortality 7 days” value ([6]; iv, 199.5 mg/kg) was 1/1, the “Deaths per day, Day 1” value (White Male Mice MCR-ICR; 1.68 g/kg) was 0 and the “Deaths per day, Day 2” value (White Male Mice MCR-ICR; 1.68 g/kg) was 1. The “Mortality 24 hrs.” value (White Male Mice MCR-ICR; 1.68 g/kg) was 0, the “Mortality 7 days” value (White Male Mice MCR-ICR; 1.68 g/kg) was 1 and the “Deaths per day, Day 1” value (White Male Mice MCR-ICR; 3.35 g/kg) was 2. The “Deaths per day, Day 3” value (White Male Mice MCR-ICR; 3.35 g/kg) was 1, the “Mortality 24 hrs.” value (White Male Mice MCR-ICR; 3.35 g/kg) was 2 and the “Mortality 7 days” value (White Male Mice MCR-ICR; 3.35 g/kg) was 3. The “Deaths per day, Day 1” value (White Male Mice MCR-ICR; 5.00 g/kg) was 7, the “Mortality 24 hrs.” value (White Male Mice MCR-ICR; 5.00 g/kg) was 7 and the “Mortality 7 days” value (White Male Mice MCR-ICR; 5.00 g/kg) was 7.
